# From patent publication US11814391B2, “Macrocyclic compounds for the treatment of medical disorders” (Achillion Pharmaceuticals, Inc., priority 2018, dated 2023)
# Where two headings read alike, the source gives them in different places.
# Key:
# [1] = rcm bond, Grubbs II, toluene, 80.0 °C
# Human Factor D = Human Factor D (Homo sapiens (Human), UniProt P00746); experiment: Human Factor D assay; format: biochemical; conditions: Human Factor D 80 nM, substrate Z-L-Lys-SBzl, A405; read-out: IC50 (Stars)
# Summary of the method: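 Serum-purified human Factor D (80 nM final) preincubated 5 min at room temperature with compound in 50 mM Tris, 1M NaCl, pH 7.5. Reaction started with Z-L-Lys-SBzI and DTNB (100 μM each); A405 read every 30 s for 30 min. IC50 from nonlinear regression of reaction rates versus compound concentration.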
# Chain of Human Factor D (P00746 26-253): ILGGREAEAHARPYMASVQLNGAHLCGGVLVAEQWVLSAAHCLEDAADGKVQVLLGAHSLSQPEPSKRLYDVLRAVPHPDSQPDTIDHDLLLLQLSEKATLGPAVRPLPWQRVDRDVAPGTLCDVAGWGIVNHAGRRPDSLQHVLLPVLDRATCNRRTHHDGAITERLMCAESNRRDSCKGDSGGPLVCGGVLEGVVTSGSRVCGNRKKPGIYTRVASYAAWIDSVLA
smiles,measurement,setting,value
C=C(C)c1cc2c3c(c1)c(C(C)=O)nn3CC(=O)N1[C@H](C(=O)Nc3nc(C(F)(F)F)ccc3C)C[C@@]3(CNC(=O)CCCC=CC2)C[C@@H]13,"ring closure, isolated yield","[1]; from C=CCCCC(=O)NC[C@@]12C[C@@H](C(=O)Nc3nc(C(F)(F)F)ccc3C)N(C(=O)Cn3nc(C(C)=O)c4cc(C(=C)C)cc(CC=C)c43)[C@@H]1C2, 17-membered ring, 1.43 mM, 16.0 h",21.7%
CC(=O)c1nn2c3c(cc(-c4cnc(C)nc4)cc13)CC=CCCC(C)(C)C(=O)NC[C@@]13C[C@@H](C(=O)Nc4nc(C(F)(F)F)ccc4C)N(C(=O)C2)[C@@H]1C3,"ring closure, isolated yield","[1]; from C=CCCC(C)(C)C(=O)NC[C@@]12C[C@@H](C(=O)Nc3nc(C(F)(F)F)ccc3C)N(C(=O)Cn3nc(C(C)=O)c4cc(-c5cnc(C)nc5)cc(CC=C)c43)[C@@H]1C2, 17-membered ring, 1.6 mM, 16.0 h",71.3%
CC(=O)c1nn2c3c(cc(-c4cnc(C)nc4)cc13)CC=CCCCC(=O)N(C)C[C@@]13C[C@@H](C(=O)Nc4cc(F)cc(Br)n4)N(C(=O)C2)[C@@H]1C3,"ring closure, isolated yield","[1]; from C=CCCCC(=O)N(C)C[C@@]12C[C@@H](C(=O)Nc3cc(F)cc(Br)n3)N(C(=O)Cn3nc(C(C)=O)c4cc(-c5cnc(C)nc5)cc(CC=C)c43)[C@@H]1C2, 17-membered ring, 1.29 mM, 16.0 h",94.5%
CC(=O)c1nn2c3c(cc(-c4cnc(C)nc4)cc13)CC=CCCCCN(C(=O)OC(C)(C)C)C[C@@]13C[C@@H](C(=O)Nc4nc(C(F)(F)F)ccc4C)N(C(=O)C2)[C@@H]1C3,"ring closure, isolated yield","[1]; from C=CCCCCN(C[C@@]12C[C@@H](C(=O)Nc3nc(C(F)(F)F)ccc3C)N(C(=O)Cn3nc(C(C)=O)c4cc(-c5cnc(C)nc5)cc(CC=C)c43)[C@@H]1C2)C(=O)OC(C)(C)C, 17-membered ring, 1.2 mM",60.4%
CC(=O)c1nn2c3c(cc(-c4cnc(C)nc4)cc13)CC=CCC[C@@H](C)C(=O)NC[C@@]13C[C@@H](C(=O)Nc4cc(F)cc(Br)n4)N(C(=O)C2)[C@@H]1C3,"ring closure, isolated yield","[1]; from C=CCC[C@@H](C)C(=O)NC[C@@]12C[C@@H](C(=O)Nc3cc(F)cc(Br)n3)N(C(=O)Cn3nc(C(C)=O)c4cc(-c5cnc(C)nc5)cc(CC=C)c43)[C@@H]1C2, 17-membered ring, 1.63 mM, 16.0 h",72.6%
CC(=O)c1nn2c3c(cc(-c4cnc(C)nc4)cc13)CC=CCC[C@@H](C)C(=O)NC[C@@]13C[C@@H](C(=O)Nc4ccc(F)c(Br)n4)N(C(=O)C2)[C@@H]1C3,"ring closure, isolated yield","[1]; from C=CCC[C@@H](C)C(=O)NC[C@@]12C[C@@H](C(=O)Nc3ccc(F)c(Br)n3)N(C(=O)Cn3nc(C(C)=O)c4cc(-c5cnc(C)nc5)cc(CC=C)c43)[C@@H]1C2, 17-membered ring, 1.67 mM",62.8%
CC(=O)c1nn2c3c(cc(-c4cnc(C)nc4)cc13)CCCCCCC=CCCN([C@@H](C)C(=O)Nc1nc(Br)ccc1C)C(=O)C2,"ring closure, isolated yield","[1]; from C=CCCCCCCc1cc(-c2cnc(C)nc2)cc2c(C(C)=O)nn(CC(=O)N(CCC=C)[C@@H](C)C(=O)Nc3nc(Br)ccc3C)c12, 16-membered ring, 1.33 mM, 16.0 h",88.9%
CC(=O)c1nn2c3c(cc(-c4cnc(C)nc4)cc13)CCCCCCC=CCc1ccc(Br)nc1NC(=O)[C@H](C)N(C)C(=O)C2,"ring closure, isolated yield","[1]; from C=CCCCCCCc1cc(-c2cnc(C)nc2)cc2c(C(C)=O)nn(CC(=O)N(C)[C@@H](C)C(=O)Nc3nc(Br)ccc3CC=C)c12, 20-membered ring, 1.4 mM, 16.0 h",63.8%
CC(=O)c1nn2c3c(cc(-c4cnc(C)nc4)cc13)N(C(=O)OCc1ccccc1)CC=CCCC(=O)NCC13CC(C(=O)Nc4nc(C(F)(F)F)ccc4C)N(C(=O)C2)C1C3 (centres unmarked),"ring closure, isolated yield","[1]; from C=CCCC(=O)NCC12CC(C(=O)Nc3nc(C(F)(F)F)ccc3C)N(C(=O)Cn3nc(C(C)=O)c4cc(-c5cnc(C)nc5)cc(N(CC=C)C(=O)OCc5ccccc5)c43)C1C2, 17-membered ring, 1.42 mM",57.2%
CC(=O)c1nn2c3c(cc(-c4cnc(C)nc4)cc13)NC(=O)CCC=CCOCC13CC(C(=O)Nc4nc(C(F)(F)F)ccc4C)N(C(=O)C2)C1C3 (centres unmarked),"ring closure, isolated yield","[1]; from C=CCCC(=O)Nc1cc(-c2cnc(C)nc2)cc2c(C(C)=O)nn(CC(=O)N3C(C(=O)Nc4nc(C(F)(F)F)ccc4C)CC4(COCC=C)CC34)c12, 17-membered ring, 1.35 mM",65.8%
CC(=O)c1nn2c3c(cc(-c4nnc(C)o4)cc13)CC=CCCCC(=O)NC[C@@]13C[C@@H](C(=O)Nc4nc(C(F)(F)F)ccc4C)N(C(=O)C2)[C@@H]1C3,"ring closure, isolated yield","[1]; from C=CCCCC(=O)NC[C@@]12C[C@@H](C(=O)Nc3nc(C(F)(F)F)ccc3C)N(C(=O)Cn3nc(C(C)=O)c4cc(-c5nnc(C)o5)cc(CC=C)c43)[C@@H]1C2, 17-membered ring, 1.36 mM, 16.0 h",83.2%
CC(=O)c1nn2c3c(cc(C)cc13)CC=CCCCC(=O)NC[C@@]13C[C@@H](C(=O)Nc4nc(C(F)(F)F)ccc4C)N(C(=O)C2)[C@@H]1C3,"ring closure, isolated yield","[1]; from C=CCCCC(=O)NC[C@@]12C[C@@H](C(=O)Nc3nc(C(F)(F)F)ccc3C)N(C(=O)Cn3nc(C(C)=O)c4cc(C)cc(CC=C)c43)[C@@H]1C2, 17-membered ring, 1.77 mM, 16.0 h",86.7%
same,"ring closure, isolated yield","[1]; from C=CCCCC(=O)NC[C@@]12C[C@@H](C(=O)Nc3nc(C(F)(F)F)ccc3C)N(C(=O)Cn3nc(C(C)=O)c4cc(C)cc(CC=C)c43)[C@@H]1C2, 17-membered ring, 1.88 mM, 12.0 h",62.6%
CC(=O)c1nn2c3c(cc(C=C(C)C)cc13)CC=CCCCC(=O)NC[C@@]13C[C@@H](C(=O)Nc4nc(C(F)(F)F)ccc4C)N(C(=O)C2)[C@@H]1C3,"ring closure, isolated yield","[1]; from C=CCCCC(=O)NC[C@@]12C[C@@H](C(=O)Nc3nc(C(F)(F)F)ccc3C)N(C(=O)Cn3nc(C(C)=O)c4cc(C=C(C)C)cc(CC=C)c43)[C@@H]1C2, 17-membered ring, 1.67 mM, 16.0 h",69.4%
CC(=O)c1nn2c3c(cc(CCC(C)C)cc13)CC=CCCCC(=O)NC[C@@]13C[C@@H](C(=O)Nc4nc(C(F)(F)F)ccc4C)N(C(=O)C2)[C@@H]1C3,"ring closure, isolated yield","[1]; from C=CCCCC(=O)NC[C@@]12C[C@@H](C(=O)Nc3nc(C(F)(F)F)ccc3C)N(C(=O)Cn3nc(C(C)=O)c4cc(CCC(C)C)cc(CC=C)c43)[C@@H]1C2, 17-membered ring, 1.38 mM, 16.0 h",27.7%
CC(=O)c1nn2c3c(cc(N4CCCC4)cc13)CC=CCCCC(=O)NC[C@@]13C[C@@H](C(=O)Nc4nc(C(F)(F)F)ccc4C)N(C(=O)C2)[C@@H]1C3,"ring closure, isolated yield","[1]; from C=CCCCC(=O)NC[C@@]12C[C@@H](C(=O)Nc3nc(C(F)(F)F)ccc3C)N(C(=O)Cn3nc(C(C)=O)c4cc(N5CCCC5)cc(CC=C)c43)[C@@H]1C2, 17-membered ring, 2.0 mM, 16.0 h",92.5%
CC(=O)c1nn2c3c(cc(NC(=O)OC(C)(C)C)cc13)CC=CCCCC(=O)NC[C@@]13C[C@@H](C(=O)Nc4nc(C(F)(F)F)ccc4C)N(C(=O)C2)[C@@H]1C3,"ring closure, isolated yield","[1]; from C=CCCCC(=O)NC[C@@]12C[C@@H](C(=O)Nc3nc(C(F)(F)F)ccc3C)N(C(=O)Cn3nc(C(C)=O)c4cc(NC(=O)OC(C)(C)C)cc(CC=C)c43)[C@@H]1C2, 17-membered ring, 1.3 mM, 16.0 h",78.9%
CC(=O)c1nn2c3c(cc(OCC(C)C)cc13)CC=CCCCC(=O)NC[C@@]13C[C@@H](C(=O)Nc4nc(C(F)(F)F)ccc4C)N(C(=O)C2)[C@@H]1C3,"ring closure, isolated yield","[1]; from C=CCCCC(=O)NC[C@@]12C[C@@H](C(=O)Nc3nc(C(F)(F)F)ccc3C)N(C(=O)Cn3nc(C(C)=O)c4cc(OCC(C)C)cc(CC=C)c43)[C@@H]1C2, 17-membered ring, 1.71 mM, 16.0 h",92%
CC(=O)c1nn2c3c(cc(Oc4ncc(C)cn4)cc13)CC=CCCCC(=O)NC[C@@]13C[C@@H](C(=O)Nc4nc(C(F)(F)F)ccc4C)N(C(=O)C2)[C@@H]1C3,"ring closure, isolated yield","[1]; from C=CCCCC(=O)NC[C@@]12C[C@@H](C(=O)Nc3nc(C(F)(F)F)ccc3C)N(C(=O)Cn3nc(C(C)=O)c4cc(Oc5ncc(C)cn5)cc(CC=C)c43)[C@@H]1C2, 17-membered ring, 1.5 mM",61.5%
CN(C(=O)OCc1ccccc1)[C@H]1CC=CCCCCCCc2ccc(Br)nc2NC1=O,"ring closure, isolated yield","[1]; from C=CCCCCCCc1ccc(Br)nc1NC(=O)[C@H](CC=C)N(C)C(=O)OCc1ccccc1, 14-membered ring, 1.85 mM, 16.0 h",79.6%
"CC(=O)c1nn2c3c(cc(-c4cnc(C)nc4)cc13)CCCCCC(C)(C)CNC[C@@]13C[C@@H](C(=O)Nc4nc(C(F)(F)F)ccc4C)N(C(=O)C2)[C@@H]1C3 [Compound 59, (41R,43S,45R)-13-acetyl-8,8-dimethyl-N-(3-methyl-6-(trifluoromethyl)pyridin-2-yl)-15-(2-methylpyrimidin-5-yl)-3-oxo-11H-42,6-diaza-1(1,7)-indazola-4(2,5)-bicyclo[3.1.0]hexanacyclotridecaphane-43-carboxamide]",IC50,Human Factor D,< 1000 nM
"CC(=O)c1nn2c3c(cc(-c4cnc(C)nc4)cc13)NC(=O)CCCCCOCC13CC(C(=O)Nc4nc(C(F)(F)F)ccc4C)N(C(=O)C2)C1C3 [Compound 60, (41R,43S,45S)-13-acetyl-N-(3-methyl-6-(trifluoromethyl)pyridin-2-yl)-15-(2-methylpyrimidin-5-yl)-3,12-dioxo-11H-6-oxa-42,13-diaza-1(1,7)-indazola-4(2,5)-bicyclo[3.1.0]hexanacyclotridecaphane-43-carboxamide]",IC50,Human Factor D,< 1000 nM
"CC(=O)c1nn2c3c(cc(-c4cnc(C)nc4)cc13)CCCCCC(C)(C)CNC[C@@]13C[C@@H](C(=O)NC4CC(C)(C)C4)N(C(=O)C2)[C@@H]1C3 [Compound 61, (41R,43S,45R)-13-acetyl-N-(3,3-dimethylcyclobutyl)-8,8-dimethyl-15-(2-methylpyrimidin-5-yl)-3-oxo-11H-42,6-diaza-1(1,7)-indazola-4(2,5)-bicyclo[3.1.0]hexanacyclotridecaphane-43-carboxamide]",IC50,Human Factor D,< 1000 nM
